# pIC50: −log10 of the molar value.
# Key:
# HGC-27 = assay: Cancer cell line profiling, Genomics of Drug Sensitivity Project; details: Homo sapiens, HGC-27, read-out: CD532 EC50 (uM)
# [1] = system: MYCN amplified neuroblastoma cells; assay: Cell cycle by flow cytometry; format: cell-based; details: 4 or 6 hrs of treatment
# Procedure: Neuroblastoma cells were treated for the indicated time, trypsinized, washed, stained with Dylight 800 at 0.3 μg/mL (Pierce, 46421), fixed with 1.5% PFA, and permeabilized with 100% methanol. Cells were then stained with antibodies against p-MPM2 (Millipore, 16-155), p-pan-Aurora (Cell Signaling, 2914), MYCN (Thermo, PA5-17403), rabbit IgG (Invitrogen, A10542), or mouse IgG (BioLegend, 405307). Cells were stained with DAPI at 0.3 μg/mL (Invitrogen, D21490) and analyzed on the BD LSR II flow cytometer. For cell cycle analysis, cells were stimulated with EdU for 2 hours prior to harvest, then probed using the Click-iT EdU Flow Cytometry Assay Kit (Invitrogen, C10424). Cells were stained with propidium iodide (BD, 556547) and analyzed on the BD FACSCalibur flow cytometer. Data was gated using Cytobank. For viability studies, neuroblastoma cells were plated in 96-well plates at a density of 1,000 cells/well for SHEP or 4,000 cells/well for Kelly or SK—N-BE2 cells, then incubated with indicated concentrations of drug for 72 hours at 37° C. Plates were frozen at −80° C. to induce cell lysis. CyQUANT reagent mixture (Invitrogen, C7026) was added to thawed plates, then fluorescence was measured. Alternatively, resazurin (Sigma-Aldrich, R7017) was added directly to wells following drug treatment then incubated for 4 hours at 37° C. prior to measuring fluorescence. Data was analyzed using GraphPad Prism software.
# phospho-histone H3 = assay: Screen of Kelly MYCN-amplified cells, western blot for phospho-histone H3; format: cell-based; details: 1 μM, 24 hrs
# Procedure: (§1) Neuroblastoma tumor cell lines were obtained from the University of California San Francisco Cell Culture Facility (Kelly, SK-N-BE2, and SH-EP). SMS-KCN, SHEP MYCN^wt and MYCN^T58A/S62A cells were obtained. All cells were grown in RPMI with 10% FBS. Neuroblastoma cells were harvested and lysed with Cell Signaling Lysis buffer+1% SDS, sonicated and supernatants boiled in LDS sample buffer (Invitrogen). Western blots were performed as described previously (Chanthery et al., 2012), with primary antibodies to MYCN (ab24193, Abcam), Histone H3, P-Histone H3 (S10), Aurora A (Cell signaling), and GAPDH (Millipore). Western blot quantitation performed with ImageJ software.
# To test whether this panel of 32 putative conformation-disrupting Aurora A inhibitors would destabilize MYCN, initially Kelly MYCN-amplified neuroblastoma cells were treated with candidate inhibitors and MYCN protein was measured by western blot. Phosphorylation of Histone H3, a known substrate for Aurora A and B and a marker for mitosis, was also assessed. FIGS. 1B and 5 show decreased levels of both MYCN protein and p-Histone H3 in response to several members of the screening panel (quantitated in FIG. 1).
# B-CPAP = assay: Cancer cell line profiling, Genomics of Drug Sensitivity Project; details: Homo sapiens, BCPAP, read-out: CD532 EC50 (uM)
# A101D = assay: as above; details: Homo sapiens, read-out: CD532 EC50 (uM)
# MKN1 = assay: as above; details: Homo sapiens, MKN-1, read-out: CD532 EC50 (uM)
# OSC-19 = assay: as above; details: OSC19, read-out: CD532 EC50 (uM)
# BB30-HNC = assay: as above; details: read-out: CD532 EC50 (uM)
# HO-1-N-1 = assay: as above; details: read-out: CD532 EC50 (uM)
# JHH-2 = assay: as above; details: JHH-2, read-out: CD532 EC50 (uM)
# SNU-81 = assay: as above; details: read-out: CD532 EC50 (uM)
# M-14 = assay: as above; details: Homo sapiens, M14, read-out: CD532 EC50 (uM)
# HMVII = assay: as above; details: read-out: CD532 EC50 (uM)
# c-MYC = c-MYC protein by immunoblot in c-MYC expressing cancer cell lines; format: cell-based
# HTC-C3 = assay: Cancer cell line profiling, Genomics of Drug Sensitivity Project; details: Homo sapiens, HTC-C3, read-out: CD532 EC50 (uM)
# OSC-20 = assay: as above; details: read-out: CD532 EC50 (uM)
# MYCN [2] = assay: MYCN protein by western blot in SK-N-BE(2) cells; format: cell-based
# Procedure: as §1
# PE/CA-PJ15 = assay: Cancer cell line profiling, Genomics of Drug Sensitivity Project; details: read-out: CD532 EC50 (uM)
# OVMIU = assay: as above; details: read-out: CD532 EC50 (uM)
# MZ2-MEL. = assay: as above; details: read-out: CD532 EC50 (uM)
# KP-N-YS = assay: as above; details: read-out: CD532 EC50 (uM)
# P-Histone H3 (S10) = assay: Dose response immunoblot for phosphorylation of Histone H3 (S10) in MYCN-amplified neuroblastoma cell lines; format: cell-based; details: FIGS. 1D and 7
# Procedure: as §1
# MYCN [3] = assay: Dose response immunoblot for MYCN in MYCN-amplified neuroblastoma cell lines (SK-N-BE(2), SMS-KCN, Kelly); format: cell-based; details: multiple cell lines, 24 hrs (FIGS. 1D and 7)
# Procedure: as §1
smiles,measurement,setting,value
"O=C(Nc1ccc(Nc2nccc(Nc3cc(C4CCCC4)[nH]n3)n2)cc1)Nc1cccc(C(F)(F)F)c1 [CD532, 1-(4-((4-((5-cyclopentyl-1H-pyrazol-3-yl)amino)pyrimidin-2-yl)amino)phenyl)-3-(3-(trifluoromethyl)phenyl)urea]",EC50,HGC-27,0.83 µM
same,cell cycle effect,[1],potent loss of S-phase entry
same,p-Histone H3 level,phospho-histone H3,decreased levels of both MYCN and p-Histone H3 proteins
same,EC50,B-CPAP,0.739 µM
same,EC50,A101D,0.429 µM
same,EC50,MKN1,0.86 µM
same,EC50,OSC-19,1.18 µM
same,EC50,BB30-HNC,0.462 µM
same,EC50,HO-1-N-1,1.67 µM
same,EC50,JHH-2,0.543 µM
same,EC50,SNU-81,0.421 µM
same,EC50,M-14,0.972 µM
same,EC50,HMVII,0.746 µM
same,c-MYC protein,c-MYC; RKO colon cancer cell line,effects loss of c-MYC protein
same,c-MYC protein,c-MYC; SUM142 breast cancer cell line,effects loss of c-MYC protein
same,c-Myc protein,c-MYC; SUM149 (ER−/PR−) breast cancer cell line,loss of c-Myc
same,c-MYC protein,c-MYC; c-MYC-translocated ML-60 leukemia cell line,effects loss of c-MYC protein
same,EC50,HTC-C3,0.915 µM
same,EC50,OSC-20,1.23 µM
same,time dependence of MYCN protein loss,"MYCN [2]; 1 μM, time course (FIG. 12A)",clear and time-dependent loss of MYCN protein
same,pIC50,"MYCN [2]; FIG. 1D, read-out: IC50 for on-target MYCN knockdown",~6.60
same,EC50,PE/CA-PJ15,1.9 µM
same,EC50,OVMIU,0.869 µM
same,EC50,MZ2-MEL.,0.434 µM
same,EC50,KP-N-YS,0.27 µM
same,"phosphorylation of Histone H3 at S10, dose response",P-Histone H3 (S10),behaves similarly to MLN8237 with regard to Histone H3 phosphorylation
same,"MYCN protein, dose response",MYCN [3],dose dependent loss of MYCN protein
